Consider four compounds from patent US6818647B2, “Method and composition for restoring diuretic and renal function” (CV Therapeutics, Inc, priority 1998, dated 2004).

The term IC50 denotes the concentration needed to halve the response being measured. A low value points to higher potency.

Test [1] has as its system patients with NYHA Class II or III CHF. Description: Renal function in CHF patients after single intravenous dose (Example 1). As to conditions: 0-2 hours, mean, single i.v. dose.
Test [2] concerns Male Sprague-Dawley rats. Nature of the test: Sustained i.v. infusion of diuretics in conscious catheterised rats: dose response, combinations, renal clearance (Example 2). It is filed as in vivo, rat. As to conditions: for Equidiuretic dose / dose at which the maximum diuretic effect was reached / diuretic effect (urine flow) / Potassium excretion: sustained i.v. infusion; for dose at which the maximum diuretic effect was reached / diuretic effect (urine flow) / Potassium excretion: dose response; for diuretic effect (urine flow) / Potassium excretion: single agents. On the procedure:
Male Sprague-Dawley rats were obtained from Charles River Labs (Wilmington, Del.). They were housed in a light-controlled room with a 12 h light/dark cycle and were allowed ad libitum access to food and water.
Catheters were implanted in the abdominal aorta and vena cava via the left femoral artery and vein under a mixture of ketamine hydrochloride (50 mg/kg) and acepromazine (0.2 mg/kg, i.m.) anesthesia. An additional medical grade Tygon tubing was placed in the he stomach at the left extremity of the greater curvature. A silastic-covered stainless steel cannula was implanted in the bladder. Details of surgery, pre and post-surgical care and the experimental set-ups have been described in detail previously (87). Experiments were conducted 4-5 days following surgery, by which time the rats had fully recovered and were gaining weight. During the recovery, the rats were housed individually and were accustomed to a plastic retainer (model ECU, Braintree Scientific, Inc., Braintree, Mass.).
Between 8:00-9:00 AM, rats were weighed and placed in the restrainer. The arterial line was connected to a Gilson polygraph via a Gould pressure transducer for the recording of blood pressure (MAP) and heart rate (HR); the venous line to infusion pumps for the infusion of vehicle and test agents; and the stomach tube to a 10 or 20 cc syringe to allow for the replacement of excess urinary loss. The bladder cannula was extended with a short length of PE tubing to permit collection of urine into preweighed tubes.
To replace normal fluid and electrolytes loss, heparinized (50 U/ml) ringer's solution was infused throughout the experiment via the arterial line and 5% dextrose during the equilibration and control period via the venous line, each at 10 μl/min. When excess fluid loss reached 2 ml, it was replaced via the gastric tube with room temperature Ringer's solution. A period of 45-60 min was allowed for equilibration in all studies, at the end of which a 0.5 ml blood sample was taken for measurement of hematocrit, plasma electrolytes and creatinine. This was followed by the various experimental procedures described below.
Group 1. Sustained I.V. infusion of diuretic agents. Urine was collected in 5 min periods throughout the experimental period. After equilibration, 3 collections were made to establish baseline. thirty min urine collections were made before and during infusion of test agent. […] At the end of experiments, the rats were weighed again and returned to their home cages.
Group 2. Sustained i.v. infusion of combinations diuretics. […] After the termination of infusion, urine flow was allowed to return to baseline, approximately 15-20 min. The rats were then weighed and returned to their home cages.
Group 3. […] (10%) and PAH (2%) were infused i.v. at 20 μl/min from the start. IN order to establish baseline values, two 20 min urine collections were performed following equilibration. One blood sample (500 μl) was taken in the middle of the second collection.
Urinary and plasma concentrations of […] and PAH were determined by spectrophotometry, electrolyte concentrations were measured using the Synchron ASB Clinical System (Beckman Instr. Inc., Brea, Calif.) and osmolality by an automatic osmometer (Model 2430, Precision Systems, Inc., Natick, Mass.). Renal clearance values were calculated using standard clearance formulae and expressed per 100 g body weight.
All values represent maximal changes, expressed as absolute values, and are reported throughout as group means+−SEM. Data from the does-response studies (groups 1-5) were analyzed using an analysis of variance for repeated measures, post-hoc comparisons were made with the Schette f-test. Analysis of variance (ANOVA) was used to analyze differences between the effects of various diuretics and their combinations (group 6) and the renal clearance data (group 7). A value of P<0.05 was considered statistically significant.

The subject of test [3] is Male Sprague-Dawley rats. Description: Renal function of anesthetized rats after 0-3 days of furosemide, before and after BG9719 IV (Example 7). It is filed as in vivo, rat. As to the method:
Twenty four hours after their last dose, they were anesthetized and instrumented to measure renal function and hemodynamics.
We collected a 30 minute baseline urine and determined basal sodium excretion in these rats.
Twenty-four hours after the last dose was administered, the rats were anesthetized and instrumented to measure renal function. […] Urine was collected via an implanted bladder catheter.

Test [4] concerns Male Sprague-Dawley rats. Description: Natriuretic response to oral dosing in rats in metabolic cages (Examples 3, 5, 6). In kind it is in vivo, rat. As to conditions: once-daily gavage, Days 1-5, furosemide 100 mg/kg or BG9719 1 mg/kg; urine 4 hours after dosing. On the procedure:
Urines were collected for 4 hours post dosing and the natriuretic response was determined. The data are expressed as uEq/hr.
FIG. 8: In the same rats from FIG. 7, we collected urine for 4 hours after dosing.
Twenty four male Sprague-Dawley rats were placed in metabolic cages to collect urines in order to assess the natriuretic response to orally administered compounds. […] Urines were collected for 4 hours after dosing. Urine volume was determined gravimetrically and urinary sodium concentration was determined by flame photometry.
The rats shown in Example 4 were placed in metabolic cages on Days 1 through 5 of dosing and urine was collected for 4 hours after dosing. Urine volume was determined gravimetrically and urinary sodium concentration was determined by flame photometry.
They were placed in metabolic cages and urines were collected for four hours after dosing. Urine volume was determined gravimetrically and urinary sodium concentration was determined by flame photometry.

For test [5], the target named is T1, adenosine A1 receptor (Homo sapiens, UniProt P30542).
T1 sequence (P30542 1-326): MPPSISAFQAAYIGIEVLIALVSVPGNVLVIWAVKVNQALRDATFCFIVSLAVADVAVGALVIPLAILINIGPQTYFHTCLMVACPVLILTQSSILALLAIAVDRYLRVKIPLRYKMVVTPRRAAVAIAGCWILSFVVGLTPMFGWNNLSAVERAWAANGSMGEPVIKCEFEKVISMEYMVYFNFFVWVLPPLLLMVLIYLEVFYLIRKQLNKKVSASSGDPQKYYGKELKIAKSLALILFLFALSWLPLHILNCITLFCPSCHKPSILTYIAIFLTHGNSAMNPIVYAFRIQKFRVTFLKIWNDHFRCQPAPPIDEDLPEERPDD
As to conditions: other adenosine A1 receptor antagonists; cited from earlier work.

Test [6] concerns the target T1, adenosine A1 receptor. Nature of the test: IC50 for the adenosine A1 receptor. It is filed as binding.
Test [7] is described as follows: Micropuncture studies. In kind it is in vivo. As to conditions: following administration of BG9719.
The mark [8] stands for this setting: renal clearance study, FUR 10 μg/kg/min i.v. for 90 min.

Structures are written as SMILES. Where “and” joins values, the source holds several entries; their conditions need not be identical. Identical values can stand only once. Entries after “also recorded” stand apart in the source; their conditions may differ.

For `NS(=O)(=O)c1cc(C(=O)O)c(NCc2ccco2)cc1Cl` [furosemide], the Urine volume result in test [1] was “increased and 1081 mL”. Further, in test [2] (setting [8]), the GFR entry is “significantly lowered” and the RBF result was “significantly lowered”. Further, in test [2], the Equidiuretic dose was 10 µg/kg/min, the “dose at which the maximum diuretic effect was reached” value was found to be 100 µg/kg/min and the “diuretic effect (urine flow)” value was “twice as a potent diuretic as BG9719”. Moreover, in test [3] (after 1 day of furosemide 100 mg/kg orally), the “basal GFR” value was “relatively normal; also recorded: fairly normal”. Further, the “natriuretic response on repeated dosing” value in test [4] is “diminishes on repeated dosing”.

As for `NS(=O)(=O)c1cc2c(cc1Cl)NCNS2(=O)=O` [HCTZ, hydrochlorothiazide], in test [2], the Equidiuretic dose came out at 30 µg/kg/min, the “dose at which the maximum diuretic effect was reached” value was 20 µg/kg/min, the Potassium excretion entry is recorded as “significantly increased” and the “diuretic effect (urine flow)” value is given as “only minor effects”.

Take `CCCn1c(=O)c2[nH]c(C34CC5CC(CC3C5)C4)nc2n(CCC)c1=O` [KW 3902]: the “A1 vs. A2 selectivity” value in test [5] is listed as 150 fold.

On to `CCCn1c(=O)c2nc(C3CC4CC3C3OC43)[nH]c2n(CCC)c1=O` [BG9719, 1,3-dipropyl-8-[5,6-exo-epoxy)-2(S) norbornyl] xanthine], for which, in test [2] (renal clearance study, 1 μg/kg/min i.v. for 90 min, not statistically significant), the “increase in GFR” value is 13%. Moreover, the “absolute and fractional excretions of sodium” value in test [2] (renal clearance study, BG9719 1 or FUR 10 μg/kg/min i.v. for 90 min) is listed as “increased”. The total urine output in test [2] (representative animal of FIG. 1, i.v. infusion 0.3-10 μg/kg/min) is 23.8 mL. In test [2], the Equidiuretic dose was determined as 1 µg/kg/min, the “dose at which the maximum diuretic effect was reached” value is 3 µg/kg/min, the Potassium excretion entry is reported as “not” and the “diuretic effect (urine flow)” value is “does-dependent increase in urine flow”. The compound further yielded an IC50 in test [6] of 1.15 nM. In test [3] (BG9719 0.1 mg/kg IV after 3 days furosemide), the “GFR after dosing in Day 3 furosemide rats” value is “recover to a level not different than normal rats”. Moreover, in test [3] (BG9719 0.1 mg/kg IV, control rats and 3 Day Furo rats), the “urinary sodium excretion (UNaV) after dosing” value was “reaches maximum within the first fifteen minutes”. Moreover, the “GFR after dosing versus baseline” value in test [3] (BG9719 0.1 mg/kg IV, rats with 0-3 days furosemide) was “increases in all groups”. Also, the tubular flow rates entry in test [7] was “increased flow rates in both the proximal and distal tubules”. Further, the “natriuretic response on repeated dosing” value in test [4] is given as “maintained across multiple dosing days”.
